Values quoted from earlier work as cited in patent US12569575B2, “Radiopaque particle compositions and uses thereof” (GUSTAVE ROUSSY TRANSFERT, priority 2021, dated 2026).
≈ marks a conversion by molar mass, not a printed value. Where a name gives a salt, the structure may show the parent alone. Read-outs that look alike come from different tables or passages of the source.

Details: for Solubility in DMSO: solvent DMSO

| Solubility in DMSO | Compound | also measured |
| --- | --- | --- |
| 10 mg/mL | COc1cccc2c1C(=O)c1c(O)c3c(c(O)c1C2=O)C[C@@](O)(C(=O)CO)C[C@@H]3O[C@H]1C[C@H](N)[C@@H](O)[C@H](C)O1 [Epirubicin HCl] | Solubility in Water (solvent water): 10 mg/mL |
| 20 mg/mL (≈ 44.8 mM) | COc1cc2ncnc(Nc3ccc(F)c(Cl)c3)c2cc1OCCCN1CCOCC1 [Gefitinib] | – |
| 97 mg/mL (≈ 201 mM) | CNC(=O)c1cc(Oc2ccc(NC(=O)Nc3ccc(Cl)c(C(F)(F)F)c3)c(F)c2)ccn1 [Regorafenib] | – |
| 92 mg/mL (≈ 198 mM) | CNC(=O)c1cc(Oc2ccc(NC(=O)Nc3ccc(Cl)c(C(F)(F)F)c3)cc2)ccn1 [Sorafenib] | – |
| 9 mg/mL | COc1cc2nccc(Oc3ccc(NC(=O)NC4CC4)c(Cl)c3)c2cc1C(N)=O [Levatinib mesylate] | – |
| 85 mg/mL | Clc1ccc(Nc2nnc(Cc3ccncc3)c3ccccc23)cc1 [Vatalanib diHCl] | Solubility in Water (solvent water): 10 mg/mL |
| 30 mg/mL (≈ 63.1 mM) | COc1cc2c(Nc3ccc(Br)cc3F)ncnc2cc1OCC1CCN(C)CC1 [Vandetanib] | Solubility in Water (in pH 6.5): 5 mg/mL (≈ 10.5 mM) |
| 50 mg/mL (≈ 94.4 mM) | Cc1cn(-c2cc(NC(=O)c3ccc(C)c(Nc4nccc(-c5cccnc5)n4)c3)cc(C(F)(F)F)c2)cn1 [Nilotinib] | – |
| 95 mg/mL (≈ 217 mM) | Cc1ccc(Nc2nccc(N(C)c3ccc4c(C)n(C)nc4c3)n2)cc1S(N)(=O)=O [Pazopanib] | – |
| 5 mg/mL (≈ 19 mM) | Nc1ccn([C@@H]2O[C@H](CO)[C@@H](O)C2(F)F)c(=O)n1 [Gemcitabine] | Solubility in Water (solvent water): 25 mg/mL (≈ 95 mM) |
| 100 mg/mL (≈ 251 mM) | CCN(CC)CCNC(=O)c1c(C)[nH]c(/C=C2\C(=O)Nc3ccc(F)cc32)c1C [Sunitinib] | Solubility in Water (in citrate buffer): 2 mg/mL (≈ 5.02 mM) |
| >95 mg/mL | Cc1ccc(NC(=O)c2ccc(CN3CCN(C)CC3)cc2)cc1Nc1nc(-c2cccnc2)cs1 [Masitinib] | Solubility in Water (solvent water): <1.2 mg/mL |
| 20 mg/mL | C#Cc1cccc(Nc2ncnc3cc(OCCOC)c(OCCOC)cc23)c1 [Erlotinib HCl] | – |

Second part, the compound before the results:

| Compound | Solubility in DMSO | also measured |
| --- | --- | --- |
| C[C@]12O[C@H](C[C@]1(O)CO)n1c3ccccc3c3c4c(c5c6ccccc6n2c5c31)CNC4=O [Lestaurtinib] | 44 mg/mL (≈ 100 mM) | – |
| CC(=O)[C@]1(O)Cc2c(O)c3c(c(O)c2[C@@H](O[C@H]2C[C@H](N)[C@H](O)[C@H](C)O2)C1)C(=O)c1ccccc1C3=O [Idarubicin HCl] | 10 mg/mL | Solubility in Water (solvent water): 1 mg/mL |
| CS(=O)(=O)CCNCc1ccc(-c2ccc3ncnc(Nc4ccc(OCc5cccc(F)c5)c(Cl)c4)c3c2)o1.Cc1ccc(S(=O)(=O)O)cc1.Cc1ccc(S(=O)(=O)O)cc1 [Lapatinib toluene-sulfonate] | 200 mg/mL | – |
| COc1cc2nc(N3CCN(C(=O)C4CCCO4)CC3)nc(N)c2cc1OC (centres unmarked) [Terazosin] | – | Solubility in Water (solvent water): 20 mg/mL (≈ 51.6 mM) |
| COc1cccc2c1C(=O)c1c(O)c3c(c(O)c1C2=O)C[C@@](O)(C(=O)CO)C[C@@H]3O[C@H]1C[C@H](N)[C@H](O)[C@H](C)O1 [Doxorubicin HCl] | 100 mg/mL | – |
| C=CC(=O)Nc1cc2c(Nc3ccc(F)c(Cl)c3)ncnc2cc1OCCCN1CCOCC1 [Canertinib diHCl] | >5.6 mg/mL | Solubility in Water (solvent water): 10 mg/mL |
| COc1cc(Nc2c(C#N)cnc3cc(OCCCN4CCN(C)CC4)c(OC)cc23)c(Cl)cc1Cl [Bosutinib] | 100 mg/mL (≈ 189 mM) | – |
| COc1cc2nccc(Oc3ccc(NC(=O)C4(C(=O)Nc5ccc(F)cc5)CC4)cc3)c2cc1OC [Cabozantinib malate] | 18 mg/mL | – |
| CN1CCN(c2ccc3nc(-c4c(N)c5c(F)cccc5[nH]c4=O)[nH]c3c2)CC1 [Dovitinib] | 40 mg/mL (≈ 102 mM) | – |
| Cc1nc(Nc2ncc(C(=O)Nc3c(C)cccc3Cl)s2)cc(N2CCN(CCO)CC2)n1 [Dasatinib] | 98 mg/mL (≈ 201 mM) | – |
| CNC(=O)c1ccccc1Sc1ccc2c(/C=C/c3ccccn3)n[nH]c2c1 [Axitinib] | 77 mg/mL (≈ 199 mM) | – |
